Measurements: article PMC7226602, “Exploring Biased Agonism at FPR1 as a Means to Encode Danger Sensing” (Cells, 2020)
Where a SMILES comes first, the peptide text is derived from it. Where no end group is shown, it is not given here. The star is where a group is joined. For = O=C*

T1: human FPR1 (Homo sapiens, UniProt P21462)
T1 construct: expressed in transfected cells
T1 sequence (P21462 1-350): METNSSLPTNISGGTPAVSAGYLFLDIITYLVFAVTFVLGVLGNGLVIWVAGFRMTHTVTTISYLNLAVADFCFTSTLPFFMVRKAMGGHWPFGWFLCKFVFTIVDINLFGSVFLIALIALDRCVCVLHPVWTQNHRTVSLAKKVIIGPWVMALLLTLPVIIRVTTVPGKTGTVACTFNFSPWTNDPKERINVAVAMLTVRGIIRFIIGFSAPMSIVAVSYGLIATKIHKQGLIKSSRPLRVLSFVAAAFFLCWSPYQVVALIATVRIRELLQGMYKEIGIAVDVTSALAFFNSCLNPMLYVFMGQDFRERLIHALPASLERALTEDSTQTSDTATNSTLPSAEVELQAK


Tests used:
human FPR1 [1] = molecular target: T1, human FPR1; assay: HTRF-based quantification of MAPK/ERK phosphorylation (ERK1/2 Thr202/Tyr204); assay type: cell-based; settings: HeLa-FPR1 cells serum-starved 2 h, agonist 5 min, 37 °C, HTRF phospho-ERK1/2, four-parameter fit, Hill 1, mean and SEM, at least 5 independent measurements; for EC50: read-out: ERK1/2 Activation logEC50 (converted)
human FPR1 [2] = molecular target: T1, human FPR1; assay: cell-based
[3] = solvent DMSO; as indicated by the manufacturer; ref manufacturer; cited from earlier work
human FPR1 [4] = molecular target: T1, human FPR1; assay: Flow cytometric analysis of agonist-induced receptor internalization; assay type: cell-based; settings: HeLa-FPR1 cells; for EC50: agonist 15 min, 37 °C, flow cytometry of surface FLAG-FPR1 (M1 antibody), mean and SEM, 6 independent measurements, NR = no response, read-out: Internalization logEC50 (converted)
[5] = molecular target: human formyl peptide receptor 1 (FPR1), N-terminally FLAG-tagged (human) (UniProt P21462)

Molecule | EC50 (human FPR1 [1]) [nM] | EC50 (human FPR1 [2]) [nM] | EmaxA of inhibition of forskolin-induced cAMP formation, HeLa-FPR1 cells (HTRF, 30 min; normalised to forskolin) (fraction of the maximum system response) [5] | logEC50 of inhibition of forskolin-induced cAMP formation, HeLa-FPR1 cells (HTRF, 30 min) (log M (unit not given)) [5] | other results
CSCC[C@H](NC=O)C(=O)N[C@@H](CC(N)=O)C(=O)N1CCC[C@H]1C(=O)N[C@@H](CC(C)C)C(=O)N[C@@H](C)C(=O)N[C@@H](CCC(N)=O)C(=O)O [MT-ND2] (For-MNPLAQ-OH) | 6170 | 2040 |  |  | 
CC[C@H](C)[C@H](NC(=O)[C@H](Cc1ccccc1)NC(=O)[C@H](Cc1c[nH]c2ccccc12)NC(=O)[C@H](C)NC(=O)[C@H](CCC(N)=O)NC(=O)[C@H](CCCCN)NC(=O)[C@H](CC(C)C)NC(=O)[C@H](Cc1ccccc1)NC(=O)[C@H](CCC(=O)O)NC(=O)[C@H](CO)NC(=O)[C@@H](NC(=O)[C@H](CCSC)NC(=O)[C@H](C)NC(C)=O)C(C)C)C(=O)N[C@@H](CCC(=O)O)C(=O)N[C@@H](CC(N)=O)C(=O)N[C@@H](CCC(=O)O)C(=O)N[C@@H](CCC(=O)O)C(=O)N[C@@H](CCC(N)=O)C(=O)N[C@@H](CCC(=O)O)C(=O)N[C@@H](Cc1ccc(O)cc1)C(=O)N[C@H](C(=O)N[C@@H](CCC(N)=O)C(=O)N[C@H](C(=O)N[C@H](C(=O)N[C@@H](CCCCN)C(=O)O)C(C)C)[C@@H](C)O)C(C)C [Ac2-26] (Ac-AMVSEFLKQAWFIENEEQEYVQTVK-OH) | 74100 | 49000 |  |  | 
CSCC[C@H](NC=O)C(=O)N[C@@H](CC(C)C)C(=O)N[C@@H](Cc1ccccc1)C(=O)O [fMLF, formyl-methionyl-leucyl-phenylalanine] |  |  |  |  | Solubility [3]: 4000 µg/mL
CC[C@H](C)[C@H](NC(=O)[C@H](CC(C)C)NC(=O)[C@H](CCCCN)NC(=O)[C@H](CCSC)NC(=O)[C@H](CC(C)C)NC(=O)[C@@H]1CCCN1C(=O)[C@H](CC(N)=O)NC(=O)[C@@H](NC(=O)[C@H](CCCCN)NC(=O)[C@H](CCCNC(=N)N)NC(=O)[C@H](CCSC)NC(=O)[C@@H]1CCCN1C(=O)[C@@H](NC(=O)[C@H](CCSC)NC=O)[C@@H](C)O)[C@@H](C)O)C(=O)N[C@@H](CC(N)=O)C(=O)O [CYTB] (For-MTPMRKTNPLMKLIN-OH) | 7760 | 3020 |  |  | 
CC(C)C[C@H](NC(=O)CN)C(=O)N[C@@H](CC(C)C)C(=O)N[C@@H](Cc1c[nH]c2ccccc12)C(=O)N[C@H](C(=O)N[C@@H](CCC(=O)O)C(=O)N[C@H](C(=O)NCC(=O)NCC(=O)N[C@@H](CCC(=O)O)C(=O)NCC(=O)N1CCC[C@H]1C(=O)NCC(=O)N1CCC[C@H]1C(=O)N[C@H](C(=O)O)[C@@H](C)O)C(C)C)C(C)C [gG2p20] (H-GLLWVEVGGEGPGPT-OH) | 708 |  |  |  | Solubility [3]: 2000 µg/mL; EC50 (human FPR1 [2]; HeLa-FPR1 cells, 5 µM forskolin + 500 µM IBMX with agonist, 30 min, 37 °C, HTRF, […], mean and SEM, at least 7 independent measurements, read-out: cAMP Formation logEC50 (converted)): 437 nM
CSCC[C@H](NC=O)C(=O)N[C@@H](CCSC)C(=O)N[C@@H](Cc1ccc(O)cc1)C(=O)N[C@@H](C)C(=O)N[C@@H](CC(C)C)C(=O)N[C@@H](Cc1ccccc1)C(=O)O [MT-ND6] (For-MMYALF-OH) | 2.19 | 74.1 |  |  | EC50 (human FPR1 [4]): 776 nM
COc1cc(/C=N/NC(=O)c2ccc3c(c2)OCO3)ccc1OCc1ccccc1 [FPRA14] |  |  |  |  | agonist-induced FPR1 internalization (decrease of cell surface-associated FPR1 pool), in words (human FPR1 [4]; 15 min after agonist addition, flow cytometry): did not elicit detectable internalization; ERK1/2 Activation logEC50 (human FPR1 [1]): −6.06 0.05; Solubility [3]: 100 mM; cAMP Formation logEC50 (human FPR1 [2]; HeLa-FPR1 cells, 5 µM forskolin + 500 µM IBMX with agonist, 30 min, 37 °C, HTRF, […], mean and SEM, at least 7 independent measurements): −5.94 0.19
CC[C@H](C)[C@H](NC(=O)[C@H](CCSC)NC=O)C(=O)N[C@H](C(=O)N[C@H](C(=O)N[C@@H](CC(C)C)C(=O)O)[C@@H](C)CC)C(C)C [fMIVIL] (For-MIVIL-OH) | 1.55 | 0.871 |  |  | EC50 (human FPR1 [4]): 79.4 nM
Ac-AMVSEFLKQAWFIENEEQEYVQTVK [acetylated peptide Ac2-26 corresponding to the N-terminus of human annexin A1] |  |  | 0.63 | -4.31 | 
For-MIVIL [formylated pentapeptide fMIVIL from Listeria monocytogenes] |  |  | 0.82 | -9.06 | EmaxA of agonist-induced FPR1 internalization, HeLa-FPR1 cells (flow cytometry, 15 min; normalised to 10^-4 M W-peptide) (fraction of the maximum system response) [5]: 0.97; logEC50 of agonist-induced FPR1 internalization, HeLa-FPR1 cells (flow cytometry, 15 min) (log M (unit not given)) [5]: -7.1
WKYMVM [synthetic agonist W-peptide (WKYMVm)] |  |  | 0.82 | -8.96 | EmaxA of agonist-induced FPR1 internalization, HeLa-FPR1 cells (flow cytometry, 15 min; normalised to 10^-4 M W-peptide) (fraction of the maximum system response) [5]: 1; logEC50 of agonist-induced FPR1 internalization, HeLa-FPR1 cells (flow cytometry, 15 min) (log M (unit not given)) [5]: -7.66
For-MTPMRKTNPLMKLIN [formylated peptide corresponding to the N-terminus of human cytochrome b (CYTB; f…)] |  |  | 0.39 | -5.52 | 
GLLWVEVGGEGPGPT (not fully specified) [gG-2p20 peptide derived from the secreted glycoprotein sgG-2 of herpes simplex virus type 2 (HSV-2)] |  |  | 0.68 | -6.36 | 
For-MNPLAQ |  |  | 0.63 | -5.69 | 
For-MMYALF |  |  | 0.66 | -7.13 | EmaxA of agonist-induced FPR1 internalization, HeLa-FPR1 cells (flow cytometry, 15 min; normalised to 10^-4 M W-peptide) (fraction of the maximum system response) [5]: 0.63; logEC50 of agonist-induced FPR1 internalization, HeLa-FPR1 cells (flow cytometry, 15 min) (log M (unit not given)) [5]: -6.11
